Experimental data published in patent publication US11642345B2, “Replication stress pathway agent compositions and methods for treating cancer” (Boundless Bio, Inc., priority 2020, dated 2023).

Columns and labels:
[1] = tested on: ecDNA+ (Colo320 DM) and ecDNA− (Colo320 HSR) cells; test: p-RPA32 S4/S8 foci by immunofluorescence after CHK1i (FIG. 41B); format: cell-based; conditions: 16 hr treatment
From the text: Increased Chk1 phosphorylation at S345 indicates higher activation of RS-activated ATR kinase, while increased gH2AX indicates increased damage resulting from DNA double stranded breaks triggered by replication stress. […] Hyperphosphorylated form of Replication Protein A (RPA) 32 Ser4/Ser8 was detected by immunofluorescence in fixed ecDNA+ (Colo320 DM) and ecDNA− (Colo320 HSR) cell line models that were previously treated with CHK1 i GDC-0575 for 16 hr. Representative bar graph represents % total nuclei positive for P-RPA32 S4/S8 foci (minimum threshold of >3 puncta/nuclei) detected by immunofluorescence in ecDNA+ and ecDNA− cells.

[2] = tested on: HeLa cells; test: HeLa cell confluence by high-content microscopy over three weeks, with or without 100 nM methotrexate; format: cell-based; conditions: three weeks
Experimental: Cell confluence was measured via high-content microscopy over the time course.
HeLa cells were treated with a WEE1 inhibitor, 0.01-0.3 μM adavosertib alone, with 1 nM-100 nM PD0166285, with 100 nM methotrexate alone, or with a combination of 0.01-0.3 μM adavosertib and 100 nM methotrexate or a combination of 1 nM-100 nM PD0166285 and 100 nM methotrexate over the course of three weeks. Cell confluence was measured via high-content microscopy over the time course.
HeLa cells were treated with a PARG inhibitor, 3-100 μM PD00017273 with (FIG. 35 top panel) or without (FIG. 35 bottom panel) 100 nM methotrexate over the course of 3 weeks. Cell confluence was measured via high-content microscopy over the time course.
Cell confluence was measured via high-content microscopy over the time course. […] However.

[3] = tested on: HeLa ecDNA+ and HeLa ecDNA− cells; test: HeLa ecDNA+ vs ecDNA− response to Chk1 inhibition, RS and DNA damage markers (FIG. 41A); format: cell-based
[4] = tested on: MYC, FGFR2, and EGFR copy number in SNU16 cells; test: qPCR gene copy number in SNU16 cells during infigratinib treatment; format: cell-based, human; conditions: 1 μM infigratinib for 9 weeks
Experimental: The SNU16 cells were treated with 1 μM of an FGFR inhibitor (infigratinib) for 9 weeks. DNA was collected at days 3, 14, 28, 42, 56, and 63 days and qPCR was performed to assess copy number for MYC. FGFR2, and EGFR at each time point. Cells after 8 weeks of infigratinib treatment and untreated SNU16 control cells were also assayed by FISH for EGFR.
To assess ecDNA copy number dynamics throughout the development of infigratinib resistance, DNA was extracted using the QIAamp DNA Mini Kit (Qiagen) and the DNA was amplified via quantitative PCR (qPCR) using Taqman copy number assays (ThermoFisher). The EGFR Taqman assay ID was Hs00997424_cn; GFGR2 assay ID was Hs05182482_cn; and the MYC assay ID was Hs03660964_cn. The cycle threshold values were normalized to the internal RNase P Taqman assay, and gene copy number was calculated using the ΔΔCt method and the DNA from a diploid control cell line, DLD1.
Methods: SNU16 control cells were cultured in RPMI-1640 media with 10% FBS under standard tissue culture conditions at 37° C. and with 5% CO2. Low passage control cells were treated with 1 μM infigratinib over the course of 9 weeks. Cells were passaged as needed and media and infigratinib were replaced at least once per week. DNA was collected at day 3 and weeks 2, 4, 6, 8 and 9. Cells in metaphase were collected at 8 weeks from both control and infigratinib-resistant cells.

[5] = tested on: KATOIII cells; test: Long-term growth curves under targeted inhibitor; format: cell-based; conditions: infigratinib at EC90 (1 uM), 11 weeks
Experimental: (§1) To measure growth kinetics over time, each cell line was treated once or twice per week with targeted inhibitor against the amplified oncogene.

[6] = tested on: SNU16 cells; test: Long-term cell growth / resistance development in SNU16 cells; format: cell-based, human; conditions: for cell growth / resistance formation: 9 weeks
Experimental: Each treatment arm was terminated once the cell number reached 5×10^6.
SNU16 cells were subdivided into five groups and each group of 1×10^6 cells was subjected to treatment with 1 μM infigratinib, 1 μM erlotinib, 1 μM infigratinib and 1 μM erlotinib, 0.1 μM adavosertib and cell growth was recorded over 9 weeks.
SNU16 cells were subdivided into five groups and each group of 1×10^6 cells was subjected to treatment with infigratinib, erlotinib, PD00017273, infigratinib and erlotinib, or infigratinib and PD00017273 and cell growth was recorded over 9 weeks.
SNU16 (CRL-5974) cell line was purchased from ATCC. SNU16 cells were grown in RPMI 1640 medium (Fisher Scientific) with 10% FBS and 100 U/ml penicillin/streptomycin (Fisher Scientific). For the resistance experiments, SNU16 cells were plated at 2 million per T75 flask and were treated with either 1 μM infigratinib (Selleck Chemicals), 1 μM erlotinib (Selleck Chemicals), 10 nM gemcitabine (Sigma Aldrich), or a combination. The media was changed and fresh drug was added at least once per week. The cells were counted over the span of several weeks to measure cell growth.

[7] = tested on: SNU16 cells; test: Long-term growth curves under targeted inhibitor; format: cell-based, human; conditions: infigratinib at EC90 (1 uM), 6 weeks
Experimental: as §1

[8] = tested on: SNU16 cells; test: 5 day viability assay, CellTiter-Glo 2.0; format: cell-based; conditions: Homo sapiens, SNU-16
[9] = tested on: KATOIII cells; test: 5 day viability assay, CellTiter-Glo 2.0; format: cell-based; conditions: Homo sapiens, KATO III
[10] = tested on: infigratinib-resistant SNU16 cells; test: Secondary resistance, cell growth of infigratinib-resistant SNU16 cells over 5 weeks; format: cell-based, human; conditions: FIG. 26, 1 uM infigratinib, 1 uM erlotinib, 10 nM gemcitabine
Experimental: The infigratinib-resistant SNU16 cells (generated as shown in FIG. 25) were subdivided into six groups and each group of 1×10^6 cells was subjected to treatment with 1 uM infigratinib, 1 uM erlotinib, 10 nM gemcitabine, or 1 uM erlotinib+10 nM gemcitabine and the cell growth was recorded over 5 weeks. Each treatment arm was terminated once the cell number reached 5×10^6.

[11] = tested on: ecDNA+ (COLO320-DM) cells; test: IC-90 and IC-70 doses of RNRi in COLO320-DM cells; format: cell-based
Experimental: (§2) FIGS. 40A-40C show inhibition of RNR blocks nucleotide synthesis causing enhanced replication stress and reduced cellular transformation in ecDNA+ compared to ecDNA-tumor cells. […] In FIG. 40A, to evaluate cellular transformation, an in vitro soft agar colony formation assay was conducted wherein ecDNA bearing COLO320-DM and SNU16 cell models were grown alongside ecDNA− cell models, COLO320-HSR and DLD1 in this 3D-format assay for 21 days. Cells were treated individually only once on the day of the seeding of cells at increasing doses of RNRi, (5-chloro-2-[[rac-(1S,2R)-2-(6-fluoro-2,3-dimethyl-phenyl)-1-(2-oxo-3H-1,3,4-oxadiazol-5-yl)propyl]sulfamoyl]benzamide). In FIG. 40B, to determine change in ecDNA carrying MYC amplified oncogene counts, ecDNA+ (COLO320-DM) cells were treated with an IC-90 dose (10 uM) of RNRi for 21 days. Cells in log-growth phase were arrested in metaphase. FISH (Florescent in-situ hybridization) for MYC oncogene was performed on the fixed metaphase spreads and the nuclei were counterstained with DAPI. […] Cells were lysed and immunoblotted with pRPA32-S33 antibody as a marker of ssDNA-damage induced replication stress.

[12] = tested on: COLO320-DM and SNU16 (ecDNA+), COLO320-HSR and DLD1 (ecDNA−) cell models; test: In vitro soft agar colony formation assay, 21 days, RNRi (FIG. 40A); format: cell-based; conditions: treated once on day of seeding, increasing doses
Experimental: as §2

[13] = tested on: SKBR3 cells; test: Long-term growth curves under targeted inhibitor; format: cell-based; conditions: SKBP3, ERBB2 Chromosomal; 2× then 4× the relative EC50, 6 weeks
Experimental: as §1

[14] = tested on: Calu-3 cells; test: Long-term growth curves under targeted inhibitor; format: cell-based; conditions: Calu3, ERBB2 Chromosomal; 2× then 4× the relative EC50, 6 weeks
Experimental: as §1

[15] = tested on: SKBR3 cells; test: 5 day viability assay, CellTiter-Glo 2.0; format: cell-based; conditions: Homo sapiens, SK-BR-3; SKBP3, ERBB2 amplification, Chromosomal; read-out: 3-5 day acute cytotoxicity EC50
Experimental: (§3) For these long-term growth curves, the EC50 of targeted therapy was first determined in short term 5 day viability assays. To determine the EC50 of irbinitinib, H2170 cells were plated at 3000 cell/well in a 96-well plate; SKBR3 and Calu-3 cells were plated at 3500 cells/well in a 96-well plate. All cells were dosed with irbinitinib continuously for 5 days (serial dilutions ranging from 12 nM to 1 uM) along with a DMSO control. EC50 curves were determined based on cell viability using CellTiter-Glo 2.0 reagent (Promega). […]

[16] = tested on: Calu-3 cells; test: 5 day viability assay, CellTiter-Glo 2.0; format: cell-based; conditions: Homo sapiens, Calu3, ERBB2 amplification, Chromosomal, read-out: 3-5 day acute cytotoxicity EC50
Experimental: as §3

[17] = tested on: H2170 cells; test: 5 day viability assay, CellTiter-Glo 2.0; format: cell-based; conditions: Homo sapiens, NCI-H2170
Experimental: as §3

With `N[C@@H]1CCCN(c2c(Br)cnc3[nH]cc(NC(=O)C4CC4)c23)C1` [GDC-0575] the “pRPA levels (% total nuclei positive for P-RPA32 S4/S8 foci)” value [1] was “increases pRPA levels in ecDNA+ (DM) cells vs. matched ecDNA− (HSR) cells”, the “development of methotrexate resistance” value ([2]; in combination with 100 nM methotrexate) was “prevented development of methotrexate resistance” and the “cell growth (cell confluence), agent alone” value ([2]; 10 nM GDC-0575, 100 nM methotrexate, 300 nM-10 μM AZD6738) was “no effect on cell growth”. For the same molecule, the “induction of markers of RS and DNA damage (Chk1 phosphorylation at S345, gH2AX)” value ([3]; 200 nM for 24 h) was “much stronger induction of markers of RS and DNA damage than ecDNA− cells” and the “sensitivity of HeLa ecDNA+ over HeLa ecDNA− cells” value ([3]; HeLa ecDNA+ grown in 1 uM methotrexate) was “increased sensitivity”.
In the case of `CCN1CCN(c2ccc(Nc3cc(N(C)C(=O)Nc4c(Cl)c(OC)cc(OC)c4Cl)ncn3)cc2)CC1` [infigratinib], the “copy number for MYC and FGFR2” value [4] is reported as “remained relatively constant”, the “copy number of EGFR” value [4] is reported as “increased” and the “Long-term culture growth properties” value [5] is reported as under 1 viability >10 weeks. The “cell growth / development of primary resistance” value ([6]; FIG. 25, 12 weeks, 1 uM infigratinib, 1 uM erlotinib, 10 nM gemcitabine) was “strongly suppressed cell growth for 5 weeks, after which cells developed resistance and grew rapidly”, the “cell growth / resistance formation” value ([6]; FIG. 30, 1 μM infigratinib, 1 μM erlotinib, 0.1 μM adavosertib) was “transient growth suppression” and the “cell growth / resistance formation” value ([6]; FIG. 34) was “transient growth suppression for approximately 3 weeks”. For the same molecule, the “Long-term culture growth properties” value [7] was “Near normal”, the EC90 ([8]; SNU16) was 1 µM and the EC50 ([8]; SNU16, ecDNA, read-out: 3-5 day acute cytotoxicity EC50) was 0.014 µM. The EC90 [9] was 1 µM, the EC50 ([9]; Chromosomal, read-out: 3-5 day acute cytotoxicity EC50) was 0.013 µM and the “cell growth / development of secondary resistance” value [10] was “no effect on cell growth on its own”.
With `Cc1ccc(F)c([C@@H](C)[C@H](NS(=O)(=O)c2ccc(Cl)cc2C(N)=O)c2n[nH]c(=O)o2)c1C` (racemic) [5-chloro-2-[[rac-(1S,2R)-2-(6-fluoro-2,3-dimethyl-phenyl)-1-(2-oxo-3H-1,3,4-oxadiazol-5-yl)propyl]sulfamoyl]benzamide] the IC-70 dose [11] was 7 µM, the IC90 ([11]; Homo sapiens, COLO 320DM) was 10 µM and the “cellular transformation, replication stress” value [12] was “enhanced replication stress and reduced cellular transformation in ecDNA+ compared to ecDNA(−) tumor cells”.
`Cc1cc(Nc2ncnc3ccc(NC4=NC(C)(C)CO4)cc23)ccc1Oc1ccn2ncnc2c1` [irbinitinib] was tested, and the “Long-term culture growth properties” value [13] was under 1% viability >6 weeks, the “Long-term culture growth properties” value [14] was “Reduced proliferation” and the EC50 [15] was 0.043 µM. It also gave an EC50 [16] of 0.414 µM, an EC90 [17] of 0.5 µM and an EC50 ([17]; H2170, ERBB2 amplification, ecDNA, read-out: 3-5 day acute cytotoxicity EC50) of 0.11 µM.
